Reference: the supplement of paper PMC10307832

Tests used:
Experiment in all cases: relative viability (nuclei count vs DMSO), 5 days (fraction); higher = more cells survive
[1] = compound: C1CN(CCC1C(C2=CC3=C(C=C2)OCO3)(C4=CC5=C(C=C4)OCO5)O)C(=O)OC6=CC=C(C=C6)[N+](=O)[O-] [JZL-184]
Summary of the method: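 Lung cancer cell lines were seeded into 1536-well plates, kept overnight at 37 °C and pinned with five library-drug doses (not always all listed) spaced by √10. After 5 days, nuclei were Hoechst-stained, imaged at 4× and counted with MetaXpress. Viability is treated-well nuclei over vehicle-well nuclei, taken as a median across plates. Plates needed control CV below 25% and at least one doubling.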

[2] = compound: C1CN(CCC1C(C2=CC3=C(C=C2)OCO3)(C4=CC5=C(C=C4)OCO5)O)C(=O)OC6=CC=C(C=C6)[N+](=O)[O-] [JZL-184] + Cc1nc(Nc2ncc(C(=O)Nc3c(C)cccc3Cl)s2)cc(N2CCN(CCO)CC2)n1 [Dasatinib] (partner 0.075 µM)
Summary of the method: (§1)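 Lung cancer cell lines were pin-tool dosed in 1536-well plates on the day after seeding, with either a lone drug or a fixed anchor-drug dose plus five library-drug doses (not always all listed) in √10 steps. Nuclei were counted on 4× images after 5 days. Relative viability is the ratio of treated-well to vehicle-well nuclei counts, with each value a median of duplicate plates.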

[3] = compound: C1CN(CCC1C(C2=CC3=C(C=C2)OCO3)(C4=CC5=C(C=C4)OCO5)O)C(=O)OC6=CC=C(C=C6)[N+](=O)[O-] [JZL-184] + CS(=O)(=O)CCNCc1ccc(-c2ccc3ncnc(Nc4ccc(OCc5cccc(F)c5)c(Cl)c4)c3c2)o1 [Lapatinib] (partner 2 µM)
Summary of the method: as §1

[4] = compound: C1CN(CCC1C(C2=CC3=C(C=C2)OCO3)(C4=CC5=C(C=C4)OCO5)O)C(=O)OC6=CC=C(C=C6)[N+](=O)[O-] [JZL-184] + O=C(CCCCCCC(=O)Nc1ccccc1)NO [Vorinostat] (partner 1 µM)
Summary of the method: as §1

[5] = compound: C1CN(CCC1C(C2=CC3=C(C=C2)OCO3)(C4=CC5=C(C=C4)OCO5)O)C(=O)OC6=CC=C(C=C6)[N+](=O)[O-] [JZL-184] + CC1(C)CCC(c2ccc(Cl)cc2)=C(CN2CCN(c3ccc(C(=O)NS(=O)(=O)c4ccc(N[C@H](CCN5CCOCC5)CSc5ccccc5)c(S(=O)(=O)C(F)(F)F)c4)cc3)CC2)C1 [Navitoclax] (partner 0.5 µM)
Summary of the method: as §1

Row | Cell Line | relative viability ([1]; 0.04 µM) | relative viability ([1]; 0.4 µM) | relative viability ([1]; 1.265 µM) | relative viability ([1]; 4 µM) | relative viability ([2]; first compound 0.04 µM) | relative viability ([2]; first compound 0.4 µM) | relative viability ([2]; first compound 1.265 µM) | relative viability ([2]; first compound 4 µM) | relative viability ([3]; first compound 0.04 µM) | relative viability ([3]; first compound 0.4 µM) | relative viability ([3]; first compound 1.265 µM) | relative viability ([3]; first compound 4 µM) | relative viability ([4]; first compound 0.04 µM) | relative viability ([4]; first compound 0.4 µM) | relative viability ([4]; first compound 1.265 µM) | relative viability ([4]; first compound 4 µM) | relative viability ([5]; first compound 0.04 µM) | relative viability ([5]; first compound 0.4 µM) | relative viability ([5]; first compound 1.265 µM) | relative viability ([5]; first compound 4 µM)
1 | EMC-BAC-2 | 1.05 | 0.944 | 1.12 | 0.922 | 0.349 | 0.32 | 0.336 | 0.326 | 0.96 | 0.869 | 0.971 | 0.83 | 0.522 | 0.451 | 0.761 | 0.371 | 1.22 | 1.12 | 1.17 | 1.11
2 | NCI-H661 | 1.02 | 0.919 | 0.943 | 0.999 | 0.95 | 0.851 | 0.907 | 0.867 | 0.505 | 0.481 | 0.637 | 0.382 | 0.865 | 0.714 | 0.975 | 0.772 |  |  |  | 
3 | LU99A | 1.01 | 0.774 | 1.18 | 0.968 | 0.717 | 0.443 | 0.525 | 0.541 | 1.21 | 0.966 | 1.22 | 0.963 | 0.567 | 0.377 | 0.66 | 0.548 | 0.714 | 0.588 | 0.804 | 0.463
4 | LK-2 | 1.13 | 0.928 | 1.21 | 0.944 | 0.379 | 0.364 | 0.295 | 0.325 | 1.24 | 0.878 | 1.04 | 0.972 | 0.275 | 0.309 | 0.251 | 0.295 | 0.941 | 0.821 | 1.06 | 0.77
5 | NCI-H3122 | 1.01 | 0.955 | 1.01 | 0.98 | 0.918 | 0.718 | 0.872 | 0.778 | 0.959 | 0.916 | 1.01 | 1.08 | 1.05 | 0.988 | 0.965 | 1.06 | 1.03 | 0.98 | 0.968 | 1.01
6 | NCI-H2347 | 0.865 | 0.996 | 1.06 | 0.989 | 0.277 | 0.305 | 0.29 | 0.369 | 1.1 | 0.884 | 0.953 | 0.815 |  | 0.494 | 0.661 | 0.616 | 0.68 | 0.706 | 0.82 | 0.903
7 | NCI-H1563 | 0.943 | 1.05 | 1.02 | 0.934 | 0.515 | 0.374 | 0.453 | 0.474 | 0.951 | 0.923 | 0.972 | 0.868 |  |  |  |  |  |  |  | 
8 | HCC-827 | 1.02 | 0.989 | 1.02 | 1.04 | 0.328 | 0.31 | 0.34 | 0.305 | 0.228 | 0.196 | 0.234 | 0.221 | 0.942 | 0.244 | 0.577 | 0.839 | 1.04 | 1.01 | 1.02 | 0.981
9 | NCI-H1666 | 1.01 | 1.01 | 0.967 | 1.04 | 0.842 | 0.861 | 0.764 | 0.783 | 0.647 | 0.65 | 0.585 | 0.633 | 1.07 | 1.02 | 1.01 | 1.01 | 1.02 | 0.825 | 1.16 | 1.02
10 | NCI-H358 | 1 | 0.824 | 0.994 | 0.916 | 0.167 | 0.134 | 0.15 | 0.155 | 0.52 | 0.418 | 0.448 | 0.436 | 0.776 | 0.768 | 0.677 | 0.69 |  |  |  | 
11 | 201T | 0.997 | 0.992 | 1.01 | 0.953 | 0.577 | 0.535 | 0.61 | 0.574 | 1.09 | 1.06 | 0.981 | 1.02 | 0.995 | 0.983 | 1.01 | 0.902 | 1.23 | 1.19 | 1.17 | 1.18
12 | PC-3 [JPC-3] | 1.04 | 0.978 | 1.1 | 1.01 | 1.01 | 0.905 | 0.976 | 0.945 | 0.521 | 0.439 | 0.441 | 0.435 | 0.873 | 0.761 | 1.14 | 0.736 | 0.794 | 0.838 | 0.791 | 0.77
13 | NCI-H2405 | 1 | 0.982 | 1.11 | 1 | 0.222 | 0.21 | 0.225 | 0.231 | 1.17 | 1.04 | 1.21 | 0.96 | 1.15 | 0.83 | 1.3 | 0.968 | 0.97 | 0.847 | 1.03 | 0.884
14 | LXF-289 | 1.08 | 0.926 | 1.02 | 0.959 | 0.173 | 0.281 | 0.207 | 0.307 | 0.92 | 0.866 | 0.924 | 0.852 | 0.771 | 0.734 | 0.755 | 0.669 | 0.973 | 0.832 | 0.91 | 0.928
